Assay results: patent publication US10385019B2, “Inhibitors of EGFR and methods of use thereof” (Dana-Farber Cancer Institute, Inc., priority 2015, dated 2019)

Target: EGFR T790M/L858R Ba/F3 cell line (Homo sapiens, UniProt P00533, T790M/L858R, cells depend on it)
Test: Ba/F3 cell proliferation model
Format: cell-based, murine
Conditions: combined with cetuximab (% cetuximab, 1.0 μM drug concentration with 1.0 μg/mL cetuximab)
Procedure, shortened: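 Murine Ba/F3 cells made IL-3-independent by retroviral EGFR L858R/T790M, selected in puromycin (2 μg/ml) and kept in RPMI 1640 with 10% FBS. Cells were exposed to serially diluted compound for 72 h, with growth read by MTS assay in six wells per point and ≥3 repeats. Sigmoidal dose-response non-linear regression gave the values.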

Sequence of EGFR T790M/L858R Ba/F3 cell line (P00533 whole entry T790M/L858R): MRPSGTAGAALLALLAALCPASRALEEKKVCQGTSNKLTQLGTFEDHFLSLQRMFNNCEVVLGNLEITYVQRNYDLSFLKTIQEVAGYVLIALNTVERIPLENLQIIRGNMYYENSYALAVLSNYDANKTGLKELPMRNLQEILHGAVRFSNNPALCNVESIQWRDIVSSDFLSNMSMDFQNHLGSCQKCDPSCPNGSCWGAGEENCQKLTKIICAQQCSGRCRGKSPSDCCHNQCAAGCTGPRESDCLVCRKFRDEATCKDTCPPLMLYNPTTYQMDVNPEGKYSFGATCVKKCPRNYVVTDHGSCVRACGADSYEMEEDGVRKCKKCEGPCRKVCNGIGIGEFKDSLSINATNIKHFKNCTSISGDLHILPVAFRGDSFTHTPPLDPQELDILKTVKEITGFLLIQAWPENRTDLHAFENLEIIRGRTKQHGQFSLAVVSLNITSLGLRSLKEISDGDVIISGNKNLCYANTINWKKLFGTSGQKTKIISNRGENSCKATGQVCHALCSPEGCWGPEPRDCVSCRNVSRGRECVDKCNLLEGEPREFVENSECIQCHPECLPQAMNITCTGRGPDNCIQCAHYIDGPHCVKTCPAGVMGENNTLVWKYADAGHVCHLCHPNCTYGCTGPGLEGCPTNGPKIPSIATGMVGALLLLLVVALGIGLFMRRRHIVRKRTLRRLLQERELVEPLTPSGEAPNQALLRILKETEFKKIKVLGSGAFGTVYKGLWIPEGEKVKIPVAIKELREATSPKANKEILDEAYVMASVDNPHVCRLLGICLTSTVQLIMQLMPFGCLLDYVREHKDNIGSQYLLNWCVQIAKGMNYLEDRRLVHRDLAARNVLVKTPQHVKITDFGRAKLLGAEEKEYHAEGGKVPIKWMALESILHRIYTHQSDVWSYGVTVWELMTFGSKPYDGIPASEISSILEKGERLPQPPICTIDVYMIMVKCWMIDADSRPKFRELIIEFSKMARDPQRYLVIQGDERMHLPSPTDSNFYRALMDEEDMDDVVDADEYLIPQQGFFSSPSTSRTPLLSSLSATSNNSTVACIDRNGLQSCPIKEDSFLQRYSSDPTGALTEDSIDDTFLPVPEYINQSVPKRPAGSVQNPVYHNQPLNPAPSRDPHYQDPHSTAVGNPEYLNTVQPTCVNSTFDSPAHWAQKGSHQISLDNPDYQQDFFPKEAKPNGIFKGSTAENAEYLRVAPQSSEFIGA

Row | SMILES | Activity (% inhibition)
1 | O=C(Nc1nccs1)[C@@H](c1ccccc1)N1Cc2ccc(Nc3ccccc3)cc2C1=O [Compound I-98, (R)-2-(1-oxo-6-(phenylamino)isoindolin-2-yl)-2-phenyl-N-(thiazol-2-yl)acetamide] | C (a % inhibition of between about 25% to about 50%)
2 | CCOC(=O)c1csc(NC(=O)[C@@H](c2ccccc2)N2Cc3ccccc3C2=O)n1 [Compound I-4, ethyl (R)-2-(2-(1-oxoisoindolin-2-yl)-2-phenylacetamido) thiazole-4-carboxylate] | A (a % inhibition of about 75%)
3 | Cc1csc(NC(=O)[C@@H](c2ccccc2)N2Cc3ccccc3C2=O)n1 [Compound I-5, (R)-N-(4-methylthiazol-2-yl)-2-(1-oxoisoindolin-2-yl)-2-phenylacetamide] | A (a % inhibition of about 75%)
4 | C[C@H](NC(=O)[C@H](c1ccccc1)N1Cc2ccccc2C1=O)c1ccccc1 [Compound I-2, (S)-2-(1-oxoisoindolin-2-yl)-2-phenyl-N-((S)-1-phenylethyl)acetamide] | A (a % inhibition of about 75%)
5 | COC(=O)c1cc(Br)ccc1N[C@@H](C(=O)Nc1nccs1)c1ccccc1 [Compound I-106, methyl (R)-5-bromo-2-((2-oxo-1-phenyl-2-(thiazol-2-ylamino)ethyl)amino)benzoate] | B (a % inhibition of between about 50% to about 75%)
6 | O=C(Nc1ncc[nH]1)[C@@H](c1ccccc1)N1Cc2ccc(-c3ccc4[nH]ccc4c3)cc2C1=O [Compound I-133, (R)-2-(6-(1H-indol-5-yl)-1-oxoisoindolin-2-yl)-N-(1H-imidazol-2-yl)-2-phenylacetamide] | D (a % inhibition of between about 0% to about 25%)
7 | COC(=O)c1ccc(-c2ccc3c(c2)C(=O)N([C@@H](C(=O)Nc2nccs2)c2ccccc2)C3)cc1 [Compound I-72, methyl (R)-4-(3-oxo-2-(2-oxo-1-phenyl-2-(thiazol-2-ylamino)ethyl)isoindolin-5-yl)benzoate] | B (a % inhibition of between about 50% to about 75%)
8 | O=C(Nc1nccs1)[C@@H](c1ccccc1)N1Cc2ccc(-c3cccs3)cc2C1=O [Compound I-46, (R)-2-(1-oxo-6-(thiophen-2-yl)isoindolin-2-yl)-2-phenyl-N-(thiazol-2-yl)acetamide] | B (a % inhibition of between about 50% to about 75%)
9 | O=C(Nc1nccs1)C(c1ccccn1)N1Cc2ccc(-c3ccc(N4CCNCC4)cc3)cc2C1=O (stereo not shown) [Compound I-124, 2-(1-oxo-6-(4-(piperazin-1-yl)phenyl)isoindolin-2-yl)-2-(pyridin-2-yl)-N-(thiazol-2-yl)acetamide] | D (a % inhibition of between about 0% to about 25%)
10 | O=C(Nc1nccs1)[C@@H](c1ccccc1)N1Cc2ccc(-c3ccccn3)cc2C1=O [Compound I-108, (R)-2-(1-oxo-6-(pyridin-2-yl)isoindolin-2-yl)-2-phenyl-N-(thiazol-2-yl)acetamide] | C (a % inhibition of between about 25% to about 50%)
11 | O=C(Nc1nccs1)[C@@H](c1ccccc1)N1Cc2ccc(-c3ccc(OC(F)(F)F)cc3)cc2C1=O [Compound I-74, (R)-2-(1-oxo-6-(4-(trifluoromethoxy)phenyl)isoindolin-2-yl)-2-phenyl-N-(thiazol-2-yl)acetamide] | B (a % inhibition of between about 50% to about 75%)
12 | COC(=O)c1cc(Br)ccc1N[C@H](C(=O)Nc1nccs1)c1ccccc1 [Compound I-107, methyl (S)-5-bromo-2-((2-oxo-1-phenyl-2-(thiazol-2-ylamino)ethyl)amino)benzoate] | B (a % inhibition of between about 50% to about 75%)
13 | O=C(Nc1nccs1)[C@@H](c1ccccc1)N1Cc2cc(-c3ccccc3F)ccc2C1=O [Compound I-101, (R)-2-(5-(2-fluorophenyl)-1-oxoisoindolin-2-yl)-2-phenyl-N-(thiazol-2-yl)acetamide] | B (a % inhibition of between about 50% to about 75%)
14 | O=C(Nc1nccs1)[C@@H](c1ccccc1)N1Cc2ccc(-c3cncnc3)cc2C1=O [Compound I-62, (R)-2-(1-oxo-6-(pyrimidin-5-yl)isoindolin-2-yl)-2-phenyl-N-(thiazol-2-yl)acetamide] | B (a % inhibition of between about 50% to about 75%)
15 | O=C(Nc1ccncc1)[C@@H](c1ccccc1)N1Cc2ccccc2C1=O [Compound I-8, (R)-2-(1-oxoisoindolin-2-yl)-2-phenyl-N-(pyridin-4-yl) acetamide] | A (a % inhibition of about 75%)

The remaining lines, values ahead:

Row | Activity (% inhibition) | SMILES
16 | A (a % inhibition of about 75%) | C[C@H](C(=O)Nc1nccs1)N1Cc2ccc(-c3ccc(N4CCN(C(=O)OC(C)(C)C)CC4)cc3)cc2C1=O [Compound I-117, tert-butyl (R)-4-(4-(3-oxo-2-(1-oxo-1-(thiazol-2-ylamino)propan-2-yl)isoindolin-5-yl)phenyl)piperazine-1-carboxylate]
17 | A (a % inhibition of about 75%) | O=C(Nc1cc(F)ccc1F)[C@@H](c1ccccc1)N1Cc2ccccc2C1=O [Compound I-53, (R)-N-(2,5-difluorophenyl)-2-(1-oxoisoindolin-2-yl)-2-phenylacetamide]
18 | A (a % inhibition of about 75%) | O=C(Nc1cc(Br)ccn1)[C@@H](c1ccccc1)N1Cc2ccccc2C1=O [Compound I-28, (R)-N-(4-bromopyridin-2-yl)-2-(1-oxoisoindolin-2-yl)-2-phenylacetamide]
19 | A (a % inhibition of about 75%) | O=C(Nc1nccs1)[C@@H](c1ccccc1)N1Cc2cc(Nc3cccc(F)c3)ccc2C1=O [Compound I-97, (R)-2-(5-((3-fluorophenyl)amino)-1-oxoisoindolin-2-yl)-2-phenyl-N-(thiazol-2-yl)acetamide]
20 | A (a % inhibition of about 75%) | CNC(=O)c1csc(NC(=O)[C@@H](c2ccccc2)N2Cc3ccccc3C2=O)n1 [Compound I-9, (R)-N-methyl-2-(2-(1-oxoisoindolin-2-yl)-2-phenylacetamido) thiazole-4-carboxamide]
21 | A (a % inhibition of about 75%) | O=C(NCC(O)CO)c1cc(Br)ccc1N[C@@H](C(=O)Nc1nccs1)c1ccccc1 (stereo partly drawn) [Compound I-111, 5-bromo-N-(2,3-dihydroxypropyl)-2-(((R)-2-oxo-1-phenyl-2-(thiazol-2-ylamino)ethyl)amino)benzamide]
22 | A (a % inhibition of about 75%) | CN1CCN(C(=O)c2csc(NC(=O)[C@@H](c3ccccc3)N3Cc4ccccc4C3=O)n2)CC1 [Compound I-25, (R)-N-(4-(4-methylpiperazine-1-carbonyl)thiazol-2-yl)-2-(1-oxoisoindolin-2-yl)-2-phenylacetamide]
23 | A (a % inhibition of about 75%) | Nc1cccc([C@H](C(=O)Nc2nccs2)N2Cc3ccccc3C2=O)c1 [Compound I-38, (R)-2-(3-aminophenyl)-2-(1-oxoisoindolin-2-yl)-N-(thiazol-2-yl)acetamide]
24 | A (a % inhibition of about 75%) | O=C(Nc1ccccn1)[C@@H](c1ccccc1)N1Cc2ccccc2C1=O [Compound I-31, (R)-2-(1-oxoisoindolin-2-yl)-2-phenyl-N-(pyridin-2-yl) acetamide]
25 | A (a % inhibition of about 75%) | O=C(Nc1ncccc1Cl)[C@@H](c1ccccc1)N1Cc2ccccc2C1=O [Compound I-57, (R)-N-(3-chloropyridin-2-yl)-2-(1-oxoisoindolin-2-yl)-2-phenylacetamide]
26 | A (a % inhibition of about 75%) | O=C(Nc1nc(Br)cs1)[C@@H](c1ccccc1)N1Cc2ccccc2C1=O [Compound I-36, (R)-N-(4-bromothiazol-2-yl)-2-(1-oxoisoindolin-2-yl)-2-phenylacetamide]
27 | A (a % inhibition of about 75%) | O=C(Nc1nccs1)[C@@H](c1ccccc1)N1Cc2cc(Nc3ccccc3)ccc2C1=O [Compound I-93, (R)-2-(1-oxo-5-(phenylamino)isoindolin-2-yl)-2-phenyl-N-(thiazol-2-yl)acetamide]
28 | A (a % inhibition of about 75%) | O=C(Nc1ncc[nH]1)[C@@H](c1ccccc1)N1Cc2ccccc2C1=O [Compound I-34, (R)-N-(1H-imidazol-2-yl)-2-(1-oxoisoindolin-2-yl)-2-phenylacetamide]
29 | A (a % inhibition of about 75%) | NC(=O)c1csc(NC(=O)[C@@H](c2ccccc2)N2Cc3ccccc3C2=O)n1 [Compound I-17, (R)-2-(2-(1-oxoisoindolin-2-yl)-2-phenylacetamido)thiazole-4-carboxamide]
30 | A (a % inhibition of about 75%) | Nc1cccc([C@@H](C(=O)Nc2nccs2)N2Cc3ccccc3C2=O)c1 [Compound I-13, (S)-2-(3-aminophenyl)-2-(1-oxoisoindolin-2-yl)-N-(thiazol-2-yl)acetamide]
31 | A (a % inhibition of about 75%) | O=C(Nc1nccs1)[C@H](Cc1ccccc1)N1Cc2ccccc2C1=O [Compound I-45, (S)-2-(1-oxoisoindolin-2-yl)-3-phenyl-N-(thiazol-2-yl) propanamide]
32 | A (a % inhibition of about 75%) | O=C(Nc1nncs1)[C@@H](c1ccccc1)N1Cc2ccccc2C1=O [Compound I-41, (R)-2-(1-oxoisoindolin-2-yl)-2-phenyl-N-(1,3,4-thiadiazol-2-yl)acetamide]
33 | A (a % inhibition of about 75%) | O=C(Nc1cnsc1)[C@@H](c1ccccc1)N1Cc2ccc(-c3ccc4[nH]ccc4c3)cc2C1=O [Compound I-128, (R)-2-(6-(1H-indol-5-yl)-1-oxoisoindolin-2-yl)-N-(isothiazol-4-yl)-2-phenylacetamide]
34 | A (a % inhibition of about 75%) | O=C(Nc1nc(C(F)(F)F)cs1)[C@@H](c1ccccc1)N1Cc2ccc(-c3ccc4[nH]ccc4c3)cc2C1=O [Compound I-132, (R)-2-(6-(1H-indol-5-yl)-1-oxoisoindolin-2-yl)-2-phenyl-N-(4-(trifluoromethyl)thiazol-2-yl)acetamide]
